pIC50: −log10 of the molar value.
Key:
Plasma [1] = test: Anticoagulant activity in human plasma assessed as concentration required for increase in clotting time after 2 mins by aPTT assay; format: functional
Plasma [2] = test: Anticoagulant activity in human plasma assessed as concentration required for increase in clotting time after 2 mins by PT assay; format: functional
Plasma [3] = test: Anticoagulant activity in human plasma assessed as concentration required for increase in clotting time after 2 mins by TT assay; format: functional
[4] = target: Coagulation factor IX/VIII (Homo sapiens, UniProt P00451+P00740); test: Inhibition of human intrinsic factor tenase using factor-10 as substrate preincubated for 2 mins followed by substrate addition for 1 min measured every 30 secs for 5 mins by chromogenic substrate S10a-11 based assay; format: protein-complex assay
Sequence of Coagulation factor IX/VIII (P00451 20-759 limits assumed): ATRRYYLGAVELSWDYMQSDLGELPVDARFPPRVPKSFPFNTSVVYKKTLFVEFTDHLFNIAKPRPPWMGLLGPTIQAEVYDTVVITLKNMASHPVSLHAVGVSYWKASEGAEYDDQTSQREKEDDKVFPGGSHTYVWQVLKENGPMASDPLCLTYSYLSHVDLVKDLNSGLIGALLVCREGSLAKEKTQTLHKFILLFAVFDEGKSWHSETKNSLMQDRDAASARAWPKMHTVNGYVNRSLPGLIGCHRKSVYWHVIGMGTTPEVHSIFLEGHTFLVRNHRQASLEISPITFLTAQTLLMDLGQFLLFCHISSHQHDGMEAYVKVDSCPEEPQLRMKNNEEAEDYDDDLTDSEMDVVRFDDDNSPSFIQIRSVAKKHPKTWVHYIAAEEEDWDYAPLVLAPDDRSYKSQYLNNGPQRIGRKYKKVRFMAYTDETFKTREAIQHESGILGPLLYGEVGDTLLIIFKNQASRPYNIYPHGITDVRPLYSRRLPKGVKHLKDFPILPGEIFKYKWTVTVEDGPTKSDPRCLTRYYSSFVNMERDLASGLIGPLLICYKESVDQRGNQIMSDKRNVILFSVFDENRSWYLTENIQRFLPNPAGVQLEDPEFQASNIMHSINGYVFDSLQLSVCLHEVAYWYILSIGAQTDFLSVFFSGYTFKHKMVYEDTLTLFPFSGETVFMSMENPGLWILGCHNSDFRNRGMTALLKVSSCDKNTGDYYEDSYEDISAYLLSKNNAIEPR
Sequence of Coagulation factor IX/VIII (P00451 1668-2351 limits assumed): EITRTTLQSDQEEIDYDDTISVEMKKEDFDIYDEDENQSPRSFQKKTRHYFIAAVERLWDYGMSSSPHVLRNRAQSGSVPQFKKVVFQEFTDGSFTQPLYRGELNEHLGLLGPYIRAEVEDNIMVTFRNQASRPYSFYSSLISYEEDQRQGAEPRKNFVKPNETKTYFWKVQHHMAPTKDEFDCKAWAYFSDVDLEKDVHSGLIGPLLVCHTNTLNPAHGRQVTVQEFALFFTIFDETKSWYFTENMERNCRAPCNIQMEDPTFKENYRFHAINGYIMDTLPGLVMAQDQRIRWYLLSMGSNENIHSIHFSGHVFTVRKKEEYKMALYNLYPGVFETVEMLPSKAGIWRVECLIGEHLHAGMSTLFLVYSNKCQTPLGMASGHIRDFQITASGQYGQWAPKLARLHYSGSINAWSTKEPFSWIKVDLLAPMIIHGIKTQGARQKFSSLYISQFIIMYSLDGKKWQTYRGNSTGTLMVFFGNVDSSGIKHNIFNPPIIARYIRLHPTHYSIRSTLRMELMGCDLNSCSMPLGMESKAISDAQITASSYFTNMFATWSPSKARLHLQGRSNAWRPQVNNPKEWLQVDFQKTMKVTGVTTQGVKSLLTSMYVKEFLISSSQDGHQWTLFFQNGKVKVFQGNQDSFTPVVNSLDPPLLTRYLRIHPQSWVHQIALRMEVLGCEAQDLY
Sequence of Coagulation factor IX/VIII (P00740 47-191 limits assumed): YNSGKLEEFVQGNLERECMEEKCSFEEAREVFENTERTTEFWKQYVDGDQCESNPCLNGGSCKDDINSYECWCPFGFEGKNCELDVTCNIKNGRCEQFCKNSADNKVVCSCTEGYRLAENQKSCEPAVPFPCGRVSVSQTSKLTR
Sequence of Coagulation factor IX/VIII (P00740 227-461 limits assumed): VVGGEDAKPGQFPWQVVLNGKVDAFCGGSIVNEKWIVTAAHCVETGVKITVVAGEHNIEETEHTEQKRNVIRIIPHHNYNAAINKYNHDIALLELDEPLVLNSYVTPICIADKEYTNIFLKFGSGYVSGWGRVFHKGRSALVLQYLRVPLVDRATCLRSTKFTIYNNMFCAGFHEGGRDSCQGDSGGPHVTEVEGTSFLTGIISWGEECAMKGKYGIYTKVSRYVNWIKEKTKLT

[5] = target: Prothrombin (Homo sapiens) (UniProt P00734); test: Inhibition of antithrombin-dependant factor 2a (unknown origin) activity at 2000 ng/ml preincubated for 2 mins followed by chromogenic substrate CS-01 addition measured every 30 secs for 5 mins relative to control
[6] = target: Coagulation factor X (Bos taurus) (UniProt P00743); test: Inhibition of antithrombin-dependant bovine factor 10a activity at 2000 ng/ml preincubated for 1 mins followed by chromogenic substrate S10a-11 addition measured every 30 secs for 5 mins relative to control
Sequence of Coagulation factor X (Bos taurus) (P00743 41-180 limits assumed): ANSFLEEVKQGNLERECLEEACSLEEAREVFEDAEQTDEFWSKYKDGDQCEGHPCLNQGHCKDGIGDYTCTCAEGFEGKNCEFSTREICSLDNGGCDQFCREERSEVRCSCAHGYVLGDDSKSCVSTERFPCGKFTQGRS
Sequence of Coagulation factor X (Bos taurus) (P00743 234-492 limits assumed): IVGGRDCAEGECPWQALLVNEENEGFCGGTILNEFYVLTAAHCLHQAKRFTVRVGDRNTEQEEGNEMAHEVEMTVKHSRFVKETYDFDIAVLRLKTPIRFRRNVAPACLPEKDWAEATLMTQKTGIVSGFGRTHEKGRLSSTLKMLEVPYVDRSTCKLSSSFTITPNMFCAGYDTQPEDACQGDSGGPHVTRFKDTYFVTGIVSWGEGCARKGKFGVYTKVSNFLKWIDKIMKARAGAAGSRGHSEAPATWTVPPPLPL

SMILES | 2aPTT (Plasma [1]) [µg/mL] | 2PT (Plasma [2]) [µg/mL] | 2TT (Plasma [3]) [µg/mL] | pIC50 [4] | inhibition [5] [%] | inhibition [6] [%]
CC(=O)N[C@@H](CO)[C@@H](O[C@@H]1OC(C(=O)[O-])=C[C@H](O[C@@H]2O[C@@H](C)[C@@H](OS(=O)(=O)[O-])[C@@H](O)[C@@H]2OS(=O)(=O)[O-])[C@H]1O)[C@@H](OS(=O)(=O)[O-])[C@H](O)COS(=O)(=O)[O-].[Na+].[Na+].[Na+].[Na+].[Na+] | >128 | >128 | >128 | 5.62 | < 10 | < 10
CC(=O)N[C@H]1[C@H](O[C@@H]([C@H](O[C@@H]2O[C@@H](C)[C@@H](OS(=O)(=O)[O-])[C@@H](O)[C@@H]2OS(=O)(=O)[O-])[C@@H](O)CO)[C@H](O)C(=O)[O-])O[C@H](COS(=O)(=O)[O-])[C@H](OS(=O)(=O)[O-])[C@@H]1O[C@@H]1O[C@H](C(=O)[O-])[C@@H](O[C@@H]2O[C@H](COS(=O)(=O)[O-])[C@H](OS(=O)(=O)[O-])[C@H](O[C@@H]3OC(C(=O)[O-])=C[C@H](O[C@@H]4O[C@@H](C)[C@@H](OS(=O)(=O)[O-])[C@@H](O)[C@@H]4OS(=O)(=O)[O-])[C@H]3O)[C@H]2NC(C)=O)[C@H](O[C@@H]2O[C@@H](C)[C@@H](OS(=O)(=O)[O-])[C@@H](O)[C@@H]2OS(=O)(=O)[O-])[C@H]1O.[Na+].[Na+].[Na+].[Na+].[Na+].[Na+].[Na+].[Na+].[Na+].[Na+].[Na+].[Na+].[Na+] | 14.43 | >128 | >128 | 7.01 | < 10 | < 10
CC(=O)N[C@H]1[C@H](O[C@@H]([C@H](O[C@@H]2O[C@@H](C)[C@@H](OS(=O)(=O)[O-])[C@@H](O)[C@@H]2OS(=O)(=O)[O-])[C@@H](O)CO)[C@H](O)C(=O)[O-])O[C@H](COS(=O)(=O)[O-])[C@H](OS(=O)(=O)[O-])[C@@H]1O[C@@H]1OC(C(=O)[O-])=C[C@H](O[C@@H]2O[C@@H](C)[C@@H](OS(=O)(=O)[O-])[C@@H](O)[C@@H]2OS(=O)(=O)[O-])[C@H]1O.[Na+].[Na+].[Na+].[Na+].[Na+].[Na+].[Na+].[Na+] | 106.9 | >128 | >128 | 5.94 | < 10 | < 10

Source: ChEMBL document CHEMBL4196037, “Precise structures of fucosylated glycosaminoglycan and its oligosaccharides as novel intrinsic factor Xase inhibitors” (Eur J Med Chem, 2018)
